Laboratory results taken from patent US20180186815A1, “PHARMACEUTICAL COMPOSITIONS, METHODS FOR THEIR PREPARATION AND THEIR USE IN THE TREATMENT OF CANCER” (Urifer Ltd., priority 2016, published 2018).
Where two headings read alike, the source gives them in different places.

Legend:
Format in all cases: cell-based
[1] = test system: colon cancer cell line HCT 116; assay: Growth profile / viability of HCT116 colon cancer cells, XTT test; conditions: Homo sapiens, HCT-116, 96 h, Control DMSO = 100%, read-out: percentage of viable cells, HCT116
Method: (§1) The effect of the compounds Z522-XXX on the growth profile of cancer cells which express Fer was tested. The cells that were tested were: the colon cancer cell lines HT29 and HCT 116, RKO. The effect of each of the compounds on FS cells, a non malingnant fibroblastic cell line, was also studied.
(§2) Generally, cells were seeded in 96 wells microplates and were left to grow untreated overnight. Each of the compounds was dissolved in DMSO and was then added to each well in a final concentration of 5 μM. The concentration of DMSO in each well was 0.4% v/v. Untreated cells and cells subjected to 0.4% DMSO alone, served as controls. The percentage of viable cells in each well was determined 96 hours after compounds addition, using the XTT test (Berridge, M. V. et al, 2005).

[2] = test system: colon cancer cell line HT29; assay: Growth profile / viability of HT29 colon cancer cells, XTT test; conditions: Homo sapiens, HT-29, 96 h, Control DMSO = 100%, read-out: percentage of viable cells, HT29
Method: as §1, §2

[3] = test system: colon cancer cell line RKO; assay: Growth profile / viability of RKO colon cancer cells, XTT test; conditions: 96 h, Control DMSO = 100%, read-out: percentage of viable cells, RKO
Method: as §1, §2

[4] = Viability of FS non malignant fibroblastic cells, XTT test; conditions: FS cells (non-malignant fibroblastic cell line), Control DMSO = 100%, read-out: percentage of viable cells, FS
Method: as §1, §2

| SMILES | viability at 5 µM ([1]; first HCT116 column) [%] | viability at 5 µM ([1]; second HCT116 column) [%] | viability at 5 µM ([2]; first HT29 column) [%] | viability at 5 µM ([2]; second HT29 column) [%] | viability at 5 µM ([3]; first RKO column) [%] | viability at 5 µM ([3]; second RKO column) [%] | viability at 96 h, 5 µM ([4]; first FS column) [%] | viability at 96 h, 5 µM ([4]; second FS column) [%] |
| --- | --- | --- | --- | --- | --- | --- | --- | --- |
| CN1CCN(C(=O)C2CCN(c3nn4cc(-c5ccc(-n6cccn6)cc5)nc4s3)CC2)CC1 [Compound Z522-0167, 2-{4-[(4-methyl-piperazin-1-yl)-carbonyl]piperidin-1-yl}-6-[4-(1H-pyrazol-1-yl)-phenyl]imidazo[2,1-b][1,3,4]-thiadiazole] | 94 | 83 | 87 | 86 | 36 | 47 | 96 | 92 |
| Cc1c(-c2ccc(N3CCN(C)CC3)cc2)nc2sc(N3CCC(C(=O)N4CCN(C)CC4)CC3)nn12 [Compound Z522-0180, 5-methyl-2-{4-[(4-methyl-piperazin-1-yl)carbonyl]piperidin-1-yl}-6-[4-(4-methylpiperazin-1-yl)phenyl]-imidazo[2,1-b]-[1,3,4]thiadiazole] | 94 | 105 | 89 | 90 | 95 | 103 | 101 | 101 |
| CC(C)c1ccc(-c2cn3nc(N4CCC(C(=O)N(C)CC(=O)NCCN(C)C)CC4)sc3n2)cc1 [Compound Z522-0239, N^4-(2-[2-(dimethylamino)ethyl]amino-2-oxoethyl)-1-[6-(4-isopropylphenyl)imidazo[2,1-b][1,3,4]thiadiazol-2-yl]-N^4-methyl-4-piperidinecarboxamide] | 80 | 45 | 3 | 2 | 1 | 1 | 83 | 96 |
| CC(C)c1ccc(-c2cn3nc(N4CCC(C(=O)N5CCN(CC(=O)NCCN(C)C)CC5)CC4)sc3n2)cc1 [Compound Z522-0241, N-[2-(dimethylamino)ethyl]-2-[4-({1-[6-(4-isopropylphenyl)imidazo[2,1-b][1,3,4]thiadiazol-2-yl]piperidin-4-yl}carbonyl)piperazin-1-yl]acetamide] | 33 | 36 | 0 | 0 | – | 0 | 78 | 88 |
| CN(CCc1ccncc1)C(=O)C1CCN(c2nn3cc(-c4ccc(Cl)cc4)nc3s2)CC1 [Compound Z522-0205, 1-[6-(4-chlorophenyl)imidazo[2,1-b][1,3,4]thiadiazol-2-yl]-N-methyl-N-(2-pyridin-4-ylethyl) piperidine-4-carboxamide] | 78 | 71 | 88 | 85 | 52 | 62 | 88 | 111 |
| Cc1ccc(C)n1CCN1CCN(C(=O)C2CCN(c3nn4cc(-c5ccc(C(C)C)cc5)nc4s3)CC2)CC1 [Compound Z522-0232, 2-[4-({4-[2-(2,5-dimethyl-1H-pyrrol-1-yl)ethyl]piperazin-1-yl}carbonyl)piperidin-1-yl]-6-(4-isopropylphenyl) imidazo[2,1-b][1,3,4]thiadiazole] | 79 | 68 | 20 | 22 | 35 | 38 | 106 | 93 |
| CC(C)c1ccc(-c2cn3nc(N4CCC(C(=O)N5CCCN(c6ncccn6)CC5)CC4)sc3n2)cc1 [Compound Z522-0242, 6-(4-isopropylphenyl)-2-{4-[(4-pyrimidin-2-yl-1,4-diazepan-1-yl)carbonyl]piperidin-1-yl}imidazo[2,1-b][1,3,4]thiadiazole] | 88 | 86 | 72 | 66 | 55 | 50 | 89 | 123 |
| CC(C)c1ccc(-c2cn3nc(N4CCC(C(=O)N5CCCCC5CCN5CCCCC5)CC4)sc3n2)cc1 (centres unmarked) [Compound Z522-0233, 6-(4-isopropylphenyl)-2-(4-{[2-(2-piperidin-1-ylethyl)piperidin-1-yl]carbonyl}piperidin-1-yl)imidazo[2,1-b][1,3,4]thiadiazole] | 1 | – | 1 | 0 | – | 0 | – | 3 |
| O=C(C1CCN(c2nn3cc(-c4ccc(Cl)cc4)nc3s2)CC1)N1CCCCC1CN1CCOCC1 (centres unmarked) [Compound Z522-0213, 6-(4-chlorophenyl)-2-(4-{[2-(morpholin-4-ylmethyl)piperidin-1-yl]carbonyl}piperidin-1-yl)imidazo[2,1-b][1,3,4] thiadiazole] | 84 | 88 | 87 | 99 | 18 | 13 | 87 | 98 |
| O=C(C1CCN(c2nn3cc(-c4ccc(Cl)cc4)nc3s2)CC1)N1CCN(c2ncccn2)CC1 [Compound Z522-0204, 6-(4-chlorophenyl)-2-{4-[(4-pyrimidin-2-ylpiperazin-1-yl)carbonyl]piperidin-1-yl}imidazo[2,1-b][1,3,4]thiadiazole] | 97 | 110 | 105 | 97 | 92 | 76 | 96 | 93 |
| CN(C)CCNC(=O)CN(C)C(=O)C1CCN(c2nn3cc(-c4ccc(Cl)cc4)nc3s2)CC1 [Compound Z522-0216, 1-[6-(4-chlorophenyl)imidazo[2,1-b][1,3,4]thiadiazol-2-yl]-N^4-(2-[2-(dimethylamino)ethyl]amino-2-oxoethyl)-N^4-methyl-4-piperidinecarboxamide] | 68 | 86 | 10 | 11 | 0 | 2 | 86 | 93 |
| Cc1c(-c2ccc(N3CCCC(C)C3)cc2)nc2sc(N3CCC(C(=O)N4CCN(C)CC4)CC3)nn12 (stereo not drawn) [Compound Z522-0186, 5-methyl-2-{4-[(4-methyl-piperazin-1-yl)carbonyl]piperidin-1-yl}-6-[4-(3-methylpiperidin-l-yl)phenyl]-imidazo[2,1-b]-[1,3,4]thiadiazole] | 23 | 26 | 7 | 7 | 8 | 11 | 82 | 94 |
| CC(C)c1ccc(-c2cn3nc(N4CCC(C(=O)N5CCN(CC(=O)N6CCN(C)CC6)CC5)CC4)sc3n2)cc1 [Compound Z522-0238, 6-(4-isopropylphenyl)-2-[4-({4-[2-(4-methylpiperazin-1-yl)-2-oxoethyl]piperazin-1-yl}carbonyl)piperidin-1-yl]imidazo[2,1-b][1,3,4]thiadiazole] | 54 | 49 | 6 | 7 | 1 | 3 | 85 | 99 |
| CN1CCN(C(=O)CN2CCN(C(=O)C3CCN(c4nn5cc(-c6ccc(Cl)cc6)nc5s4)CC3)CC2)CC1 [Compound Z522-0215, 6-(4-chlorophenyl)-2-[4-({4-[2-(4-methylpiperazin-1-yl)-2-oxoethyl]piperazin-1-yl}carbonyl)piperidin-1-yl]imidazo[2,1-b][1,3,4]thiadiazole] | 63 | 58 | 14 | 11 | 6 | 10 | 85 | 109 |
| Cc1c(-c2ccc(N3CCSCC3)cc2)nc2sc(N3CCC(C(=O)N4CCN(C)CC4)CC3)nn12 [Compound Z522-0184, 5-methyl-2-{4-[(4-methyl-piperazin-1-yl)carbonyl]piperidin-1-yl}-6-(4-thiomorpholin-4-ylphenyl)imidazo [2,1-b][1,3,4]-thiadiazole] | 77 | 87 | 50 | 44 | 41 | 53 | 71 | 86 |
